Laboratory results taken from ChEMBL document CHEMBL3832028, “DailyMed|setid=372af566-d6ec-446f-88db-0b4cc83b577f | GLYBURIDE AND METTFORMIN HYDROCHLORIDE - glyburide and hydrochloride tablet, film coated| Citron Pharma LLC”.

Assay: Tmax for Glyburide following single oral co-administration of 5 mg glyburide and 500 mg metformin hydrochloride to feeding subjects.
Type: ADME, organism-based
Settings: human, in vivo, dietary status Fed, dosed compound id 13, dosed compound name GLYBURIDE, regimen Single dose, tissue Plasma

**Q.** With `COc1ccc(Cl)cc1C(=O)NCCc1ccc(S(=O)(=O)NC(=O)NC2CCCCC2)cc1` [GLYBURIDE] as the compound, how does the Tmax read?
**A.** Its Tmax is 2.75 h.
